Results reported in ChEMBL document CHEMBL1201862, “PubChem BioAssay data set” (2004).
Activity calls are given as the source filed them.

Legend:
cells [1] = experiment: cells
[2] = viability of uninfected HEp-2 cells – cell-based, HTS, cytotoxicity control for RSV inhibitor project, dose response (AID 2410); format: functional; conditions: human respiratory syncytial virus
[3] = biological target: T1, Sentrin-specific protease 7 (Homo sapiens, UniProt Q9BQF6); format: functional;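 note: Luminescence-based dose-response confirmation of ultra-high-throughput screening hits, measuring inhibition of SENP7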
T1 sequence (Q9BQF6 whole entry): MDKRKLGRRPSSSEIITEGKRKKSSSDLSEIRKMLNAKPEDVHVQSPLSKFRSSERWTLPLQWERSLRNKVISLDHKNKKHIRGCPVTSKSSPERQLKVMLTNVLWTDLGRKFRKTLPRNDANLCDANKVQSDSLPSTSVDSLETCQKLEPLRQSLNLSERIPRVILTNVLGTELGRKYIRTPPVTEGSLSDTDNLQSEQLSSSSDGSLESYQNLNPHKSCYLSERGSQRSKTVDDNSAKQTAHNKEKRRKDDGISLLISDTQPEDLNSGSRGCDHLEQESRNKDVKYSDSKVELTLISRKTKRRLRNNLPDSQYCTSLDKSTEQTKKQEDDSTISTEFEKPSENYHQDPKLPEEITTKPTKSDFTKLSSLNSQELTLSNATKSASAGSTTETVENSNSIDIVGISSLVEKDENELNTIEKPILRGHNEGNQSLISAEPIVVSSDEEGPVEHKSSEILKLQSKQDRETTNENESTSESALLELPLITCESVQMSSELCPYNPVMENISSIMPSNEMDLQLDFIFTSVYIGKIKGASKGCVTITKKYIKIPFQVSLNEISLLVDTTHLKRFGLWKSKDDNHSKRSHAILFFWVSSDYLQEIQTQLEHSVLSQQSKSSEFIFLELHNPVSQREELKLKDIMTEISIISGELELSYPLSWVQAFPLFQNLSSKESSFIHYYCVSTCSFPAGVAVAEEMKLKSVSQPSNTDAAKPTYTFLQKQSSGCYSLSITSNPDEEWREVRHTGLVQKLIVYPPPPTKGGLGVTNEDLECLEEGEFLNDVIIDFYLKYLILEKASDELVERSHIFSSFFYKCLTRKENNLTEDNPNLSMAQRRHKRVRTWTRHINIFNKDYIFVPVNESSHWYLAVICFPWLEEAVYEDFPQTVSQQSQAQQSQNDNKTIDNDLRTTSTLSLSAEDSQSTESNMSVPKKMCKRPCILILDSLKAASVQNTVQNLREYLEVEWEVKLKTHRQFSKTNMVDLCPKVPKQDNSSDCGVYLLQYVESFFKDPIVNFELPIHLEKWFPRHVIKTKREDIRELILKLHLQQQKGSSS

[4] = biological target: T2, Sentrin-specific protease 8 (Homo sapiens, UniProt Q96LD8); format: functional;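 note: luminescence read-out of SENP8 inhibition, dose-response confirmation following an ultra-high-throughput screen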
T2 sequence (Q96LD8 whole entry): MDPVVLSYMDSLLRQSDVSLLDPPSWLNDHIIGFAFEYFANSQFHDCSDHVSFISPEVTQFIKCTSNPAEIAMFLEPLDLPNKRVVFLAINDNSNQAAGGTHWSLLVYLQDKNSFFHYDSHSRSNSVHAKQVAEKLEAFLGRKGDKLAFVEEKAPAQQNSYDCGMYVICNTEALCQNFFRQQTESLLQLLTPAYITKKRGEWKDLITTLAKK

[5] = biological target: T3, Sentrin-specific protease 6 (Homo sapiens, UniProt Q9GZR1); format: functional;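 note: Luminescence-based dose-response confirmatory assay of SENP6 inhibition, following up an ultra-high-throughput screen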
T3 sequence (Q9GZR1 whole entry): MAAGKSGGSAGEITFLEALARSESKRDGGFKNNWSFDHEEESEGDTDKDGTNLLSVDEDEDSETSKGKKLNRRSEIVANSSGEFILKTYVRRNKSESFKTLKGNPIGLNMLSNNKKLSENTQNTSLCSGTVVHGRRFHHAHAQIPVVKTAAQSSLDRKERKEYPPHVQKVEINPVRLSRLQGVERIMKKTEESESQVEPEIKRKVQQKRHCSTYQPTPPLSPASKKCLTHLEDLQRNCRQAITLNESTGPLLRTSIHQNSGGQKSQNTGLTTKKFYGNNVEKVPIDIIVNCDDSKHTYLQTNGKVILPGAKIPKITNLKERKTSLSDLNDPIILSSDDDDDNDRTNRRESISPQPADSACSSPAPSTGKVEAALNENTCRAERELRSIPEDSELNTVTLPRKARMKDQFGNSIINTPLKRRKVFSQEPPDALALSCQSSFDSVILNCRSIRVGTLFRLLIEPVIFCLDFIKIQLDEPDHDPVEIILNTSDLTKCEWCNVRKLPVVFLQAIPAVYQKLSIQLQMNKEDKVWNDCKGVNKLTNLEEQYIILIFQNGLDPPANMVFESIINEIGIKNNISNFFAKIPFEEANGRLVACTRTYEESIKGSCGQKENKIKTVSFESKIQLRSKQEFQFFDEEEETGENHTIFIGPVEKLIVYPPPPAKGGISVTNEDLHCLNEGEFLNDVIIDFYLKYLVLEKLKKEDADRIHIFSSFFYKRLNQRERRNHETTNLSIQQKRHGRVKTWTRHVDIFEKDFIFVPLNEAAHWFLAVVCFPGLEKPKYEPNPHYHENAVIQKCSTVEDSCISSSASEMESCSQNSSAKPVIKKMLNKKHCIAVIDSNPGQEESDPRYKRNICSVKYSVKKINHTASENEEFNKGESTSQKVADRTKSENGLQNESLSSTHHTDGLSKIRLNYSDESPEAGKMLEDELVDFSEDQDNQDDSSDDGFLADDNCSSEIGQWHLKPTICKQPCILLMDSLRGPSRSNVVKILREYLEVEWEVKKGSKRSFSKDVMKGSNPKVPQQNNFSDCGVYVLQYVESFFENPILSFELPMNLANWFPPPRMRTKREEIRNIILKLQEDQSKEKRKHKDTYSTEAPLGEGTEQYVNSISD

Caspase-3 = biological target: T4, Caspase-3 (Homo sapiens, UniProt P42574); format: functional;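 note: Dose-response selectivity test against caspase-3 for candidate inhibitors of sentrin-specific proteases (SENPs)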
T4 sequence (P42574 whole entry): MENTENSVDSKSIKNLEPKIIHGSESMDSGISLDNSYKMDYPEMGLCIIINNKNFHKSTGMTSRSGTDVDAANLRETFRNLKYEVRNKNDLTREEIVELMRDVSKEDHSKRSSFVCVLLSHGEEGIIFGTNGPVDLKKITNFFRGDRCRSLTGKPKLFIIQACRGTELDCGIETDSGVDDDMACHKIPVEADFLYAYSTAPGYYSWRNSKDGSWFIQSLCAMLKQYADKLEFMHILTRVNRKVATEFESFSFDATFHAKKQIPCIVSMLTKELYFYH

Streptococcus = experiment: GAS UMAA2166 growth inhibition – luminescence, BacTiterGlo, counter-screen for streptokinase expression inhibitor project, dose response (AID 1915); format: functional, organism-based;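 note: potency for reduction of bacterial viability or growth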
[6] = viability loss of HPDE-C7K cells – cell-based, fluorescence, HTS, primary screen (AID 431); format: functional; conditions: Homo sapiens
[7] = HPDE-C7 pancreatic duct cell viability loss – fluorescence, HTS (AID 430); format: functional, cell-based; conditions: Homo sapiens
[8] = test system: Streptococcus sp. 'group A'; experiment: Streptococcus pyogenes SK(-)GAS viability under kanamycin – luminescence, BacTiterGlo, confirmation, counter-screen for streptokinase expression inhibitor project, dose response (AID 1900); format: functional, organism-based
[9] = biological target: DNA dC->dU-editing enzyme APOBEC-3G (Homo sapiens, UniProt Q9HC16); format: functional;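 note: Dose-response counterscreen measuring inhibition of APOBEC3G DNA deaminase activity, run while confirming APOBEC3A inhibitors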
DNA dC->dU-editing enzyme APOBEC-3G, sequence (Q9HC16 whole entry): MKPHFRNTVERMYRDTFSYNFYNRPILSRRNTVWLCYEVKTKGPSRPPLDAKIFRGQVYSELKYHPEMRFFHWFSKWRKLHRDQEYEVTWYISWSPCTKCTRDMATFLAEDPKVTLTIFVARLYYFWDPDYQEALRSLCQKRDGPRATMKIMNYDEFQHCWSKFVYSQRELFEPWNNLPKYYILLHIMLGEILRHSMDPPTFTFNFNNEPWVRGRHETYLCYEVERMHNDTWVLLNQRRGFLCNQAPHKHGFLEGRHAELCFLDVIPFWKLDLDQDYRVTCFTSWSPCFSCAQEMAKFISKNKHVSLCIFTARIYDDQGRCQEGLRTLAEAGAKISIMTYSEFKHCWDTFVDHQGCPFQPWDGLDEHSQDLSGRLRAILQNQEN

[10] = biological target: DNA dC->dU-editing enzyme APOBEC-3A (Homo sapiens, UniProt P31941); experiment: Dose Response confirmation of small molecule APOBEC3A DNA Deaminase Inhibitors via a fluorescence-based single-stranded DNA deaminase assay. [Related pubchem assays (depositor defined):AID493011, AID493024]; format: functional
DNA dC->dU-editing enzyme APOBEC-3A, sequence (P31941 whole entry): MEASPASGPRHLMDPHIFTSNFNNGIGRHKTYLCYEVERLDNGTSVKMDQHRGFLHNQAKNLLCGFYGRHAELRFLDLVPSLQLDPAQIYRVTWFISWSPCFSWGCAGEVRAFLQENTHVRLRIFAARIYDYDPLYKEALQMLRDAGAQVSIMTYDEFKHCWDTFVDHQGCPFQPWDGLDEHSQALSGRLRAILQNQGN

[11] = Luminescence Cell-Based Dose Response HTS to Identify Inhibitors of 5'UTR Stem-Loop Driven Prion Protein mRNA Translation in H4 Neuroglioblastoma Cells. [Related pubchem assays: 1827 (Project Summary), 1813 (Primary HTS)]; format: functional
cells [12] = format: functional, cell-based
cells [13] = format: functional, cell-based; remark: listed apart in the source
[14] = alpha-synuclein stem-loop luciferase translation blockers – H4 neuroglioma cells, luminescence, confirmation (AID 1988); format: functional, cell-based
BJ [15] = experiment: BJ-TERT fibroblast viability loss – cell-based, RAS-independent, luminescence, dose response (AID 1933); format: functional; conditions: Homo sapiens
[16] = Trypanosoma cruzi growth suppression in host cells – NIH3T3 host cells, beta-gal luminescence, confirmation (AID 2044); format: functional, cell-based;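 note: intracellular parasites grown in NIH/3T3 mouse fibroblasts as host cells; luminescent beta-galactosidase reporter signal from transgenic T. cruzi replicating inside host cells; inhibitors lower the luminescence signal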
BJ [17] = experiment: cells; format: functional, cell-based; conditions: Homo sapiens
[18] = NIH3T3 cell viability loss – ATP luminescence, mouse fibroblasts, counter-screen, dose response (AID 2010); format: functional, cell-based;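 note: cells exposed to compound for about 90 hours before reading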
[19] = luciferase reporter signal suppression in cells – H4 neuroglioma cells, luminescence, dose response (AID 1990); format: functional, cell-based
[20] = DRD fibroblast viability loss – cell-based, non-viral oncogenic, luminescence, dose response (AID 1934); format: functional; conditions: Homo sapiens
[21] = luciferase reporter signal reduction – luminescence, H4-C neuroglioblastoma cells, dose response (AID 2458); format: functional, cell-based;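 note: H4 neuroglioblastoma cells stably carrying a luciferase reporter gene fusion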
[22] = alpha-synuclein stem-loop translation blockers – luminescence, H4 neuroglioblastoma cells, dose confirmation, confirmation (AID 2454); format: functional, cell-based;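 note: H4 neuroglioblastoma cells carrying an alpha-synuclein 5'UTR luciferase reporter; potency for inhibition of the luciferase signal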
BJ [23] = experiment: BJ-TERT-LT-ST fibroblast viability loss – cell-based, RAS-independent, luminescence, dose response (AID 1935); format: functional; conditions: Homo sapiens;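 note: BJ fibroblasts immortalized with TERT plus LT and ST oncogenes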
[24] = biological target: FAD-linked sulfhydryl oxidase ALR (Homo sapiens, UniProt P55789); experiment: ALR-catalysed DTT oxidation blockers – biochemical, H2O2 detection, luminescence, cherry-pick, dose response (AID 493248)
FAD-linked sulfhydryl oxidase ALR, sequence (P55789 whole entry): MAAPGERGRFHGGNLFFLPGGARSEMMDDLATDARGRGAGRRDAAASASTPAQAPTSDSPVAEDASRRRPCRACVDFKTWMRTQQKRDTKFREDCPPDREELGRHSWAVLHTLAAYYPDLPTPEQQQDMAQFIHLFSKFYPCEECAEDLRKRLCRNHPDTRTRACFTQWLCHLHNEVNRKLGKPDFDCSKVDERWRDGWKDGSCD

cells [25] = format: functional, cell-based; remark: listed apart in the source
[26] = biological target: Eukaryotic translation initiation factor 4E (Mus musculus, UniProt P63073); experiment: blockers of eIF4G binding by eIF4E – biochemical, TR-FRET, dose response (AID 855); format: functional;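 note: potency for disrupting eIF4E binding to eIF4GI seen as loss of FRET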
Eukaryotic translation initiation factor 4E, sequence (P63073 whole entry): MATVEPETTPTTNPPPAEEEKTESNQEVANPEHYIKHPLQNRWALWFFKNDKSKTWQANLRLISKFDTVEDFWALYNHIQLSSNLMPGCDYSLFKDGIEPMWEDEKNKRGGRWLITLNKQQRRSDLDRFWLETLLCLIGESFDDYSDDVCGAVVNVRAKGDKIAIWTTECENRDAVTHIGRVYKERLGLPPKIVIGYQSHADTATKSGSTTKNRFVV

Cytochrome P450 2C9 = Cytochrome P450 2C9 (Homo sapiens, UniProt P11712)
Cytochrome P450 2C9, sequence (P11712 whole entry): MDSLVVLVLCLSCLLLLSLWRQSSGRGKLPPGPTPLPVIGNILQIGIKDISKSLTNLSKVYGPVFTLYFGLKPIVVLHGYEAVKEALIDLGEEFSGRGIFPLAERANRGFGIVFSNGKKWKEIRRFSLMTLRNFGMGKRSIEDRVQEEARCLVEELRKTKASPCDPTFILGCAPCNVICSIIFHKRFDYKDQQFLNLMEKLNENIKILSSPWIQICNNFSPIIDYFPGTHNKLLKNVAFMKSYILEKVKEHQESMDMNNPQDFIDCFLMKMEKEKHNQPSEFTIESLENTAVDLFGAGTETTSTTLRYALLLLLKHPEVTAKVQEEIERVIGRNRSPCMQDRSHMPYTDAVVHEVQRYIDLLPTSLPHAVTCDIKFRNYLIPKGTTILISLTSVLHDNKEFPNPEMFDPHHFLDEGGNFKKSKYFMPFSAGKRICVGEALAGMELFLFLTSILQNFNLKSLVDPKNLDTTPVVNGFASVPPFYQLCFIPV

Cytochrome P450 2D6 = Cytochrome P450 2D6 (Homo sapiens, UniProt P10635);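 note: CYP2D6 member of a cytochrome P450 panel assay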
Cytochrome P450 2D6, sequence (P10635 whole entry, the tested form may be a part): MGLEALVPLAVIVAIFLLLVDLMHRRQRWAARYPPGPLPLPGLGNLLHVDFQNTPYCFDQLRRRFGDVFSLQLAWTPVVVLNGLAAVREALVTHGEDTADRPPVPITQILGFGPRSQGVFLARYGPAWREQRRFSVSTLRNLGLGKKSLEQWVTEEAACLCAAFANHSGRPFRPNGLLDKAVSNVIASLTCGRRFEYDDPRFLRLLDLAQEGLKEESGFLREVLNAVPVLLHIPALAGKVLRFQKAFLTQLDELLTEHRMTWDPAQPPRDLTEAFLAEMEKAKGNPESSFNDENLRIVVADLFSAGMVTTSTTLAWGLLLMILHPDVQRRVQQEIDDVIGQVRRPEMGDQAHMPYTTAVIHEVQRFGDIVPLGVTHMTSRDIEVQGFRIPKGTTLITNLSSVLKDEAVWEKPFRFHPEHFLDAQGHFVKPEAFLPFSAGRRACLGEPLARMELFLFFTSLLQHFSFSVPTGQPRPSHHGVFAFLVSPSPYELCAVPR

[27] = biological target: T5, Carboxy-terminal domain RNA polymerase II polypeptide A small phosphatase 1 (Homo sapiens, UniProt Q9GZU7); experiment: CTDSP1 inhibitors, concentration-response, biochemical, absorbance readout, ultra-high-throughput screen actives (AID 540297); format: functional
T5 sequence (Q9GZU7 whole entry): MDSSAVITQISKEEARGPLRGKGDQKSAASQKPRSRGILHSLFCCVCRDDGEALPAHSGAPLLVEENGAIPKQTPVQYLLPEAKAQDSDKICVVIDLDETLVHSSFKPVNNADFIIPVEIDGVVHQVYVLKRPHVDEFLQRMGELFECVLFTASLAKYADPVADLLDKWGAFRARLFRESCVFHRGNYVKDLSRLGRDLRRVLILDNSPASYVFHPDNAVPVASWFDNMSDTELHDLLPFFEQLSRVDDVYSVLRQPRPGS

COc1ccc(N(CC(=O)NC2CCCCC2)C(=O)c2ccc(C)s2)c(OC)c1
IC50 (cells [1]): 10.9 µM (active) | CC50 [2]: 43.8 µM (active)

CCOC(=O)c1ccc(NC(=O)/C=C/c2cccs2)cc1
IC50 [3]: 4.96 µM (active) | IC50 [4]: 14.5 µM (active) | IC50 [5]: 15 µM (active) | IC50 (Caspase-3): 21.6 µM (active)

C=CCN1C(=O)NC(=O)/C(=C(/CC)Nc2ccc(N(CC)CC)cc2)C1=O
EC50 (Streptococcus): 2.03 µM (active) | EC50 [6]: > 20 µM (not active) | EC50 [7]: > 20 µM (not active) | EC50 [8]: 1.23 µM (active)

COc1ccccc1-c1noc(CSc2nc(C)cc(O)n2)n1
IC50 [9]: 19.4 µM (active) | IC50 [10]: 16.6 µM (active)

Cc1cc(C)c(S(=O)(=O)N2CCCCC2CCNC(=O)C(=O)NC2CC2)c(C)c1 (stereo not drawn)
IC50 (cells [1]): 4.37 µM (active) | CC50 [2]: 20.3 µM (active)

O=C(O)c1ccc2cc(-c3ccccc3)[nH]c2c1
IC50 [3]: 0.938 µM (active) | IC50 [4]: 1.53 µM (active) | EC50 [11]: 11.8 µM (inconclusive) | IC50 [5]: 1.08 µM (active) | EC50 (cells [12]): > 350 µM (not active) | EC50 (cells [13]): 2.55 µM (active) | IC50 (Caspase-3): 1.22 µM (active)

COc1ccc(OC)c(Nc2c3c(nc4ccccc24)CCC3)c1
EC50 [14]: < 0.1 µM (active) | EC50 (BJ [15]): 0.463 µM (active) | EC50 [16]: 3.15 µM (active) | EC50 (BJ [17]): 15 µM (inconclusive) | EC50 [18]: 0.432 µM (active) | EC50 [19]: 3.29 µM (active) | EC50 [11]: 0.355 µM (active) | EC50 [20]: 12.4 µM (active) | EC50 [21]: 0.716 µM (active) | EC50 [22]: 1.18 µM (active) | EC50 (BJ [23]): 0.284 µM (inconclusive) | AC50 [24]: 16.2 µM (active) | EC50 (cells [25]): 0.804 µM (active)

CC1CCc2nn(CC(=O)N3CCCCCC3)cc2C1 (stereo not drawn)
IC50 [26]: > 64 µM (inactive)

CC(=O)C1=C(c2ccccc2)OC(N)=C(C#N)C1c1ccc(O)cc1 (stereo not drawn)
IC50 [26]: > 64 µM (inactive)

Cc1[nH]c2ccccc2c1/C=C(\C#N)C(=O)NC(C)c1ccccc1 (stereo not drawn)
AC50 (Cytochrome P450 2C9): inconclusive | IC50 [9]: 2.64 µM (active) | AC50 (Cytochrome P450 2D6): 8.91 µM (inconclusive) | IC50 [10]: 1.87 µM (active)

O=C(NCc1ccc(F)cc1)c1c2c(nc3ccccc13)CCC2
IC50 [27]: 5.44 µM (active) | IC50 [26]: 50 µM (inactive)

COCCCNC(=O)c1ccc(Cn2c(=O)c3ccccc3n(Cc3ccc(C)cc3)c2=O)cc1
IC50 (cells [1]): 2.98 µM (active)

CC(=O)c1ccc[n+](CC(=O)NC(C)c2ccccc2)c1 (stereo not drawn)
IC50 [9]: 6.17 µM (active) | IC50 [10]: 3.57 µM (active)

O=C(CNc1cccc(C(F)(F)F)c1)N/N=C/c1cn(-c2ccccc2)nc1-c1ccccc1
IC50 (cells [1]): 19.8 µM (active) | CC50 [2]: > 50 µM (active)

c1ccc(-c2noc(-c3ccc4ccccc4c3)n2)cc1
EC50 [14]: < 0.1 µM (active) | EC50 [19]: < 0.1 µM (active) | EC50 [11]: 8.76 µM (active) | EC50 [21]: 0.974 µM (active) | EC50 [22]: 0.636 µM (active) | EC50 (cells [25]): 0.694 µM (inconclusive)

O=[N+]([O-])c1cccc(/C=N/Nc2ccccn2)c1
IC50 [3]: 7.65 µM (active) | IC50 [4]: > 100 µM (inactive) | IC50 [5]: > 100 µM (inactive) | IC50 (Caspase-3): 8.82 µM (active)

COc1ccccc1/C=C/C(=O)NCC(=O)N/N=C(/C)c1ccc(Cl)cc1
IC50 (cells [1]): 25.4 µM (active)
